This is an account of results in publication PMC12040169 (PLOS Biology, 2025).

A short description of this data set: in vitro. The conditions noted are these: human, hela cells, % viability.

Take `Cc1cccc(C(=O)O)c1NC(=O)Cc1cccc2ccccc12` [CBK268361]: the viability at 28.5 h, 10 µM turned out to be 111%.

In the case of `Cc1onc(-c2ccccc2Cl)c1C(=O)Nc1ccc(CC(=O)O)cc1` [CBK269623], the viability at 28.5 h, 10 µM turned out to be 89.2%.

Turning to `O=[N+]([O-])c1ccc(-c2nc(-c3ccccc3)c(-c3ccc4oc5ccc(-c6[nH]c(-c7ccc([N+](=O)[O-])cc7)nc6-c6ccccc6)cc5c4c3)[nH]2)cc1` [CBK261434], the viability at 28.5 h, 10 µM was determined as 93.9%.

As for `Cc1cc2c(cc1C)N(C(=O)CSc1nc3ccccc3[nH]1)C(C)(C)CC2C` (stereo not shown) [CBK264144], the viability at 28.5 h, 10 µM was 98.7%.

On to `O=C1NC(=O)C(=Cc2ccc(-c3ccc([N+](=O)[O-])cc3)o2)C(=O)N1` [CBK229904], for which, for the setting “bulk resorufin, single well”, the viability at 28.5 h, 10 µM amounted to 114%.

As for `O=c1[nH]c(-c2ccccc2)nc2c1CN(Cc1cccs1)CC2` [CBK282330], the viability at 28.5 h, 10 µM amounted to 87.1%.

As to `COc1ccccc1CNC(=O)N[C@@H](CC(C)C)C(=O)O` [CBK286722], the viability at 28.5 h, 10 µM turned out to be 92.9%.

Take `N#Cc1ccc(C(=O)N2C[C@@H]3C[C@H](C2)c2c(-c4cccc(C#N)c4)ccc(=O)n2C3)cc1` [CBK289196]: the viability at 28.5 h, 10 µM is 104%.

On to `COc1cc(CN2CCC3(CC2)CN(CC(N)=O)c2ccccc23)cc(OC)c1OC` [CBK126774], for which the viability at 28.5 h, 10 µM was 93.1%.

Turning to `Cc1ccccc1NC(=O)Cn1cnc2c(cnn2-c2ccccc2)c1=O` [CBK287530], the viability at 28.5 h, 10 µM worked out at 104%.

As for `Cc1cc(NCC2(CO)CCOCC2)nc(N2CCCC2)n1` [CBK307005], the viability at 28.5 h, 10 µM was 85.8%.

Take `O=C(CCSCc1nc2sc3c(c2c(=O)[nH]1)CCC3)N1CCC1` [CBK304536]: the viability at 28.5 h, 10 µM amounted to 75.7%.

On to `Cc1cn2c(nc1=O)OC[C@H]1O[C@@H]2C[C@H]1O` [CBK201280], for which the viability at 28.5 h, 10 µM came out at 93.5%.

In the case of `CCCNC(=O)C(C)NC(=O)C1=Cc2ccccc2OC1` (stereo not shown) [CBK297937], the viability at 28.5 h, 10 µM was found to be 95.2%.

Turning to `CN(C)CCCC(=O)Nc1ccc2c(ccn2Cc2ccccc2)c1` [CBK159740], the viability at 28.5 h, 10 µM was found to be 91.2%.

As for `C=CCn1c2cc(C)sc2c2cnn(CCC(C)=O)c(=O)c21` [CBK282868], the viability at 28.5 h, 10 µM is 95.7%.

As to `CN1CCC(C(=O)Nc2cnc(-c3cccc(OC(F)(F)F)c3)c(-c3cccnc3)n2)CC1` [CBK036882], the viability at 28.5 h, 10 µM amounted to 108%.

Take `CCCn1c(SCC(=O)N2CCc3ccccc32)nc(O)cc1=O` [CBK305843]: the viability at 28.5 h, 10 µM stood at 95.4%.

`O=C(O)COc1ccc2c(=O)c(Oc3ccccc3Br)c(C(F)(F)F)oc2c1` [CBK263747]: the viability at 28.5 h, 10 µM was determined as 101%.

For the molecule `CC(=O)Nc1cc(NC(=O)CCCC(=O)O)ccc1Cl` [CBK263949], the viability at 28.5 h, 10 µM was 73.3%.

Consider `Cc1cc(C(=O)O)c(NC(=O)c2cccc(Cl)c2)s1` [CBK126813], for which the viability at 28.5 h, 10 µM amounted to 100%.

With `CCN(CC)CCN1CCN(c2cc(-c3cccnc3)ncn2)CC1` [CBK036957], the viability at 28.5 h, 10 µM came out at 94.8%.

As for `O=C(Nc1cccc(-c2nc3ncccc3o2)c1)c1cccnc1Cl` [CBK058695], the viability at 28.5 h, 10 µM amounted to 92%.

Regarding `CCOC(=O)N1CCN(CC(=O)Nc2cc3c(cc2C(C)=O)OCO3)CC1` [CBK266163], the viability at 28.5 h, 10 µM was determined as 99.8%.

Turning to `c1ccc(CNc2nc(-c3ccco3)cn3ccnc23)nc1` [CBK037482], the viability at 28.5 h, 10 µM came out at 96.6%.

Turning to `CNC(=O)c1cc(-c2cccc(Cl)c2)oc1CC(=O)c1ccc(CN2CCCC2)cc1` [CBK047558], the viability at 28.5 h, 10 µM was 95.3%.

Consider `Cc1noc(C)c1NC(=O)Cc1cccnc1` [CBK200391], for which the viability at 28.5 h, 10 µM amounted to 96.6%.

Take `COc1cnc(-c2cnn(C)c2)c(NC(=O)C2CC2)n1` [CBK145328]: the viability at 28.5 h, 10 µM was determined as 104%.

On to `CC(=O)Nc1cccc(-c2cncc(-c3ccc(O)cc3)n2)c1` [CBK123795], for which the viability at 28.5 h, 10 µM is 77.8%.

For `CSc1sc(C(=O)CC#N)c2c1C=CCC2` [CBK006004], the viability at 28.5 h, 10 µM was 91%.

For the molecule `O=S(=O)(c1cc(Cl)ccc1Cl)N1CCCN(Cc2ccccc2)CC1` [CBK044491], the viability at 28.5 h, 10 µM turned out to be 104%.

As to `COc1ccc(CN2C(=O)CC3(C2=O)C(=O)N(C)c2ccccc23)cc1OC` (stereo not shown) [CBK075450], the viability at 28.5 h, 10 µM stood at 91.8%.

Regarding `O=C(NCCN1CCOCC1)C1CCCN(c2nc3c(-c4ccccc4)csc3c(=O)[nH]2)C1` (stereo not shown) [CBK215509], the viability at 28.5 h, 10 µM came to 106%.

As for `O=C(O)c1cccc(NS(=O)(=O)c2ccc(-c3cnco3)cc2)c1` [CBK155726], the viability at 28.5 h, 10 µM came to 97.4%.

As for `Cc1ccc(OCC(=O)N2CCCCC2c2nccs2)cc1` (stereo not shown) [CBK305091], the viability at 28.5 h, 10 µM stood at 88.7%.

For `NC(=O)c1ccccc1NC(=S)NC(=O)c1cc2ccccc2o1` [CBK265633], the viability at 28.5 h, 10 µM came to 81.3%.

On to `O=C(CC1CCN(C(=O)Cc2ccccc2)CC1)NC1(c2ccccc2)CCCC1` [CBK285965], for which the viability at 28.5 h, 10 µM turned out to be 101%.

As for `CCC(C)c1ccc(NC(=S)NCCn2cc(Cl)cn2)cc1` (stereo not shown) [CBK267101], the viability at 28.5 h, 10 µM was 90.7%.

As for `CCCCNC(=S)N[C@H]1CC[C@@]2(Cc3ccc(OC)cc3)CCN(C)[C@H]2C1` [CBK004258], the viability at 28.5 h, 10 µM is 108%.

Regarding `Fc1ccccc1CCOc1cncc(Cl)n1` [CBK176038], the viability at 28.5 h, 10 µM is 86%.

`Nc1nonc1C(=O)NCCNS(=O)(=O)c1ccc(F)cc1` [CBK265980]: the viability at 28.5 h, 10 µM was found to be 88.1%.

For `CCC(C(=O)Nc1ccc(OC(C)=O)cc1C(=O)O)c1ccccc1` (stereo not shown) [CBK269685], the viability at 28.5 h, 10 µM was determined as 94.5%.

Consider `C[C@]12CN(Cc3ccccc3)C[C@H]1CNc1ccccc1C(=O)N2` [CBK282932], for which the viability at 28.5 h, 10 µM worked out at 94.1%.

With `Cn1c(CSCc2ccccc2F)nnc1SCC(=O)c1ccc(Br)cc1` [CBK269143], the viability at 28.5 h, 10 µM was 92.3%.

On to `OCCN1CCN(CC(O)COc2ccc(Cl)cc2Cl)CC1` (stereo not shown) [CBK278198C], for which the viability at 28.5 h, 10 µM stood at 108%.

Consider `O=C(NCc1ccc(Cl)c(Cl)c1)c1cnoc1-c1ccccc1Cl` [CBK154942], for which the viability at 28.5 h, 10 µM is 98.4%.

For `COc1cccc(C(=O)NC(c2ccc(OC)c(OC)c2)c2cc(Cl)c3cccnc3c2O)c1` (stereo not shown) [CBK264048], the viability at 28.5 h, 10 µM was determined as 95.4%.

Regarding `O=C(c1c(F)cccc1F)N1CCC(O)(c2cccnc2F)CC1` [CBK284359], the viability at 28.5 h, 10 µM was 97.7%.

As to `O=C(NC1CCN(c2ncccn2)CC1)c1cccnc1O` [CBK297739], the viability at 28.5 h, 10 µM stood at 99.7%.

Regarding `O=S(=O)(c1ccc(OC(F)(F)F)cc1)N1CCCCC1CO` (stereo not shown) [CBK051527], the viability at 28.5 h, 10 µM is 91.7%.

Consider `N#Cc1cccc(C(=O)NCC2(N3CCOCC3)CCSC2)c1` (stereo not shown) [CBK306344], for which the viability at 28.5 h, 10 µM worked out at 121%.

Take `Cc1cc2c(=O)n(CC(=O)NCc3ccccn3)cnc2s1` [CBK071900]: the viability at 28.5 h, 10 µM is 91.1%.

Consider `N#CCCCN1CCC2(CC1)OCCc1c2[nH]c2ccc(Br)cc12` [CBK040105], for which the viability at 28.5 h, 10 µM was found to be 88.4%.

For `COCCNC(=O)Cn1nnc(-c2ccc(OC)cc2)n1` [CBK069349], the viability at 28.5 h, 10 µM was 88.1%.

As for `Cc1cccnc1CN1CCN(C(=O)NCCSc2nncn2C)CC1` [CBK306949], the viability at 28.5 h, 10 µM amounted to 89.9%.

On to `CCOC(=O)C1(c2ccccc2)CCN(C(=O)CC(C)(C)N)CC1` [CBK137117], for which the viability at 28.5 h, 10 µM (bulk resorufin, single well) was 96.6%.

In the case of `CCCn1ccnc1CNc1nc(C(C)(C)C)nc2c1cnn2C` [CBK306739], the viability at 28.5 h, 10 µM was 91.3%.

Consider `O=C(O)c1cc(NC/C=C/c2ccccc2)ccc1N1CCOCC1` [CBK269806], for which the viability at 28.5 h, 10 µM is 106%.

As to `Cc1cc(C(=O)Nc2ccccc2N2CCOCC2)c(C)o1` [CBK057243], the viability at 28.5 h, 10 µM was 111%.

Take `Cc1ccc(S(=O)(=O)Nc2ccnc(-c3ccc(CN4C(=O)CSC4=O)cc3)n2)cc1` [CBK067925]: the viability at 28.5 h, 10 µM is 96.1%.

Consider `O=C(O)COc1ccccc1/C=N\N1CCN(Cc2ccccc2Cl)CC1` [CBK020891], for which the viability at 28.5 h, 10 µM turned out to be 96.7%.

Regarding `CC1CCN(S(=O)(=O)c2ccc(NC(=O)CN3CCOCC3)cc2)CC1` [CBK268339], the viability at 28.5 h, 10 µM turned out to be 81.4%.

As to `COc1ccc(C(NC(=O)NNC(=O)CCC(=O)c2ccc(F)cc2)c2ccccc2C)cn1` (stereo not shown) [CBK083659], the viability at 28.5 h, 10 µM came to 99%.

Turning to `COc1cc(Nc2cc(-c3ccc(F)c(F)c3)ncn2)cc(OC)c1OC` [CBK090711], the viability at 28.5 h, 10 µM came out at 94.7%.

Take `COc1ccc(CN(C)c2c(C)nc3c(OCCc4cccc(OC)c4)cccn23)cc1` [CBK147467]: the viability at 28.5 h, 10 µM was found to be 109%.

For the molecule `CC(C)(C)c1[nH]c2ncccc2c1CN1CCCC(CO)C1` (stereo not shown) [CBK285342], the viability at 28.5 h, 10 µM worked out at 99.1%.

Turning to `COc1ccc(C(=O)CSc2nnc(-c3ccc4c(c3)OCO4)n2-c2ccccc2)cc1` [CBK263592], the viability at 28.5 h, 10 µM was 80.7%.

On to `Nc1ncc(-c2cncnc2)nc1NCc1ccccc1` [CBK063584], for which the viability at 28.5 h, 10 µM was 103%.

Consider `CCCCN(C(C)=O)c1c(CC)nc2ccc(C(=O)NCCCn3ccnc3)cn12` [CBK145759], for which the viability at 28.5 h, 10 µM was 96.1%.

As to `CC(C)c1ccc2oc(-c3ccc(NC(=S)NC(=O)c4cncc(Br)c4)cc3)nc2c1` [CBK264913], the viability at 28.5 h, 10 µM worked out at 106%.

In the case of `Cc1cccc(NC(=O)CSCc2ccc(Cl)s2)n1` [CBK297895], the viability at 28.5 h, 10 µM is 90.4%.

For `Cn1c(Cc2csc(NC(=O)c3ccc(Cl)cc3F)n2)n[nH]c1=S` [CBK296635], the viability at 28.5 h, 10 µM was found to be 94.7%.

Regarding `CCOC(=O)c1c(NC(=O)Cn2nc(C(F)(F)F)c(Cl)c2C)sc2c1CCCC2` [CBK263019], the viability at 28.5 h, 10 µM came out at 98.5%.

In the case of `COc1ccccc1-c1cnc(N)c(N[C@H](C)c2ccccc2)n1` [CBK063705], the viability at 28.5 h, 10 µM was 102%.

For `CSc1nc2ccccc2c2nc(-c3ccncc3)nn12` [CBK288566], the viability at 28.5 h, 10 µM stood at 99.7%.

For `C=CCn1c(C)c(CN2CCc3c(nc(C)[nH]c3=O)C2)c2ccccc21` [CBK283990], the viability at 28.5 h, 10 µM came to 88.6%.

In the case of `O=C(O)CNC(=O)CN1C(=O)c2ccc(C(=O)O)cc2C1=O` [CBK264080], the viability at 28.5 h, 10 µM stood at 90.8%.

Consider `O=C1COc2ccccc2C/C=C/CC2(CCN(CC3CCOCC3)CC2)CN1` [CBK292128], for which the viability at 28.5 h, 10 µM worked out at 104%.

For the molecule `Cc1nc2ccccc2n1CC(=O)N(CCC#N)Cc1ccco1` [CBK306323], the viability at 28.5 h, 10 µM is 86.1%.
